Measurements from publication PMC5589090 (PLoS Medicine, 2017).
Read-outs that look alike come from different tables or passages of the source.

Experiments:
[1] = system: malignant tumor formation; parameters: method as in Berger MR. Proc Am Ass Cancer Res 1997;38:599; conditions: 6mg/kg of decitabine; controls 30-40%; ref Berger MR. Proc Am Ass Cancer Res 1997;38:599; cited from earlier work
DNMT1 = conditions: cited from earlier work
thyroid carcinoma = system: thyroid carcinoma; parameters: method as in ref 95 (a number printed in a supplementary file, which may have a reference list of its own: not looked up in the article's list); conditions: cited from earlier work
[2] = parameters: method as in ref 16 (a number printed in a supplementary file, which may have a reference list of its own: not looked up in the article's list); conditions: decitabine 0.1-0.2mg/kg 1-2X/week, four SCD patients; cited from earlier work
[3] = Decitabine plasma pharmacokinetics by LCMS/MS after first oral THU-decitabine dose; assay type: in vivo, human; conditions: for Cmax: first dose
Description: Blood samples were drawn over a period of less than 1 minute into tubes pre-loaded with heparin and THU 10 μg/ml (to prevent in vitro metabolism by CDA) and immediately transferred onto ice. Samples were then centrifuged as soon as possible at 600 g for 5 minutes at 4°C. […] Pharmacokinetic data were analyzed using non-compartmental methods or a 2-compartment model with instantaneous/intravenous input using the R package PKLMfit. […] The AUClast (the area under the curve from the time of dosing to the last measurable concentration) was calculated by the linear trapezoidal method.
Samples will be processed immediately by centrifugation at 3000 × g for 5 min in a refrigerated centrifuge. […] To increase stability, tetrahydrouridine (THU), a cytidine deaminase inhibitor, will be added to the plasma supernatant at a final concentration of 100 μM immediately after centrifugation. Plasma (300 μL) will be then aliquoted into two tubes with the remaining plasma in a third tube. The plasma will be immediately frozen at −80 °C until analysis. All samples will be sent to Jiang Wang, PhASR at The Ohio State University for processing (appendix B).
The chromatographic separation will be performed on a 250 mm × 2.0 mm i.d., 4.0 μm, C18 column (YMC Co. Ltd., Kyoto, Japan) and a 20 mm × 2.1 mm i.d., 3.5 μm, C18 guard column (Waters Xterra RP18, Waters Corporation, Milford, MA, USA) kept at room temperature. The mobile phase used for chromatographic separation will be composed of 2 mM ammonium acetate containing 0.1% formic acid and methanol, and is delivered using a gradient flow. The mass spectrometer is equipped with an electrospray interface, which will be operated in a positive mode, and controlled by the completely validated Masslynx software (Waters Corporation, Milford, MA, USA). […] The analytical method is currently under development and validation according to the ICH Guideline (ICH Harmonized Tripartite Guideline. Validation of Analytical Procedures: Text and Methodology. Q2(R1). Incorporated in November, 2005) in the laboratory of Dr. Lyubimov (Toxicology Research Laboratory, TRL). Method specificity, linearity, range, accuracy, precision and detection limit will be established and validated. In addition, short-term, long-term and freezing/towing stability will be determined. All sample collection, handling and analysis procedures will be performed according to GLP and GCP requirements. All data and the report will be audited by the Quality Assurance Officer at TRL.
PK analysis: PK analysis will be performed using the Winnonlin software (version 5.0.1, Pharsight NC) and will include the determination of maximum plasma concentration (Cmax), time to maximum plasma concentration (Tmax), area under the plasma concentration-versus-time curve from time zero to last measurable plasma concentration (AUC0-t). The terminal rate constant ( [picture] z) will be determined from the slope of the terminal phase of the plasma concentration-time curve using uniform weight. The terminal half-life (T1/2) will be calculated as 0.693 divided by [picture] z. Area under the concentration-time curve (AUC) will be calculated using the log/linear trapezoidal rule. The AUC will be extrapolated to infinity (AUC0– [picture] ) by using the equation, AUC0– [picture] = AUC0–t + Clast/ [picture] z, where Clast will be the final quantifiable concentration.

[4] = parameters: method as in ref 99 (a number printed in a supplementary file, which may have a reference list of its own: not looked up in the article's list); conditions: cited from earlier work
E. Coli lac I transgene = conditions: ref 76 77; cited from earlier work
[5] = Blood counts, clinical pathology (total hemoglobin, reticulocytes, platelets, ANC, ALC, WBC); assay type: in vivo, human; conditions: cohorts 4 and 5, while total hemoglobin increased
Source text: Blood counts, blood chemistries, total bilirubin, HbF, LDH, and D-dimer levels were standard clinical pathology tests through the CLIA-certified Clinical Pathology Laboratory at the University of Illinois at Chicago.

cancers = system: cancers; parameters: method as in ref 94 (a number printed in a supplementary file, which may have a reference list of its own: not looked up in the article's list); conditions: cited from earlier work
8 melanoma cell lines = system: 8 melanoma cell lines; parameters: method as in ref 21 (a number printed in a supplementary file, which may have a reference list of its own: not looked up in the article's list); conditions: two daily treatments 0.2 µM; cited from earlier work
[6] = system: 10T1/2 cells and V79 cells; parameters: method as in ref 74 (a number printed in a supplementary file, which may have a reference list of its own: not looked up in the article's list); conditions: cited from earlier work
tumor cell lines = system: tumor cell lines; parameters: method as in ref 83 (a number printed in a supplementary file, which may have a reference list of its own: not looked up in the article's list); conditions: of 25 940 genes analyzed; cited from earlier work
[7] = system: Salmonella typhimurium tester strain TA100; parameters: method as in ref 78 (a number printed in a supplementary file, which may have a reference list of its own: not looked up in the article's list); conditions: cited from earlier work
[8] = parameters: method as in Investigators Brochure; conditions: THU co-administration, mice; ref Investigators Brochure; cited from earlier work
[9] = ref Investigators Brochure, cited from earlier work

## Nc1ncn([C@H]2C[C@H](O)[C@@H](CO)O2)c(=O)n1 [decitabine, 5-aza-2’-deoxycytidine]
[1]
  rate of malignant tumor formation: 74-94%
DNMT1; in vitro
  concentrations that deplete DNMT1 without measurable DNA damage or cytotoxicity: 200 to 500 nM
DNMT1; ref 15;17-22;48
  threshold concentration for depleting DNMT1: ~ 0.005 µM
DNMT1; ref 27;101
  half-life in vitro: 5 to 16 h
Thyroid carcinoma
  thyroid carcinoma promotion: promoted goitrogen induced, but not radiation induced, thyroid carcinoma
[2]
  Hemoglobin increases within 2-4 weeks: > 1.5 g/dL
  maximum hemoglobin increases: 3.5 to 5 g/dL
[3]; human, plasma, po, decitabine plasma concentration, Cmax, oral decitabine 0.08 mg/kg (cohort 4) 60 min after oral THU 10 mg/kg
  Cmax: 9 to 21 nM
[3]; human, plasma, po, decitabine plasma concentration, Cmax, oral decitabine […] (cohort 5) 60 min after oral THU 10 mg/kg, at 2 hours
  Cmax: ~50 nM
[3]; lowest oral decitabine dose level 0.01 mg/kg after oral THU 10 mg/kg
  decitabine detected in the plasma: detected
[3]; oral decitabine 60 minutes after THU 10 mg/kg
  decitabine Tmax: hours
[3]; read-out: decitabine plasma concentration, Cmax, oral decitabine […] (cohort 5) 60 min after oral THU 10 mg/kg, at 2 hours
  Cmax: 39 to 54 nM
[4]
  testicular weight, sperm counts and fertility: dose-dependent decrease in testicular weight, decline in sperm counts and reduced fertility
E. Coli lac I transgene
  transgene mutations: mutations predominantly at CpG nucleotides
[5]
  reticulocyte counts: decreased
cancers
  decrease of the incidence of cancers: 30%
8 melanoma cell lines
  DNA damage (H2AX, CHK1, p53 phosphorylation, BAX, GADD45, comet assay): did not cause DNA damage
[6]
  mutagenicity: either did not show mutagenicity or was weakly mutagenic
Tumor cell lines
  genes with increased expression: 0.67%
[7]
  mutagenicity: weak mutagen
[8]
  increase of AUClast compared to oral decitabine alone: approximately 9 fold
[9]; THU co-administration, baboons
  increase of AUClast compared to oral decitabine alone: approximately 9 fold
[9]; oral decitabine 5-10 mg/m^2 + oral THU 400 mg/m^2 2-3X/week up to 8 weeks
  hematologic or other evidence of cytotoxicity: did not produce hematologic or other evidence of cytotoxicity
[9]; read-out: decitabine Cmax, oral decitabine 100 mg/m^2 + oral THU 400 mg/m^2, in 1 of 7 animals
  Cmax: ~200 nM
